{"source": "patent US20230121313A1", "about": "(priority 2019, published 2023)", "key": {"[1]": {"test_system": "patients with treatment-resistant depression (TRD)", "experiment": "GAD-7, phase 2 dose-response study in TRD", "format": "in vivo, human", "protocol": "(§1) Overall illness severity was assessed on the Clinical Global Impression of Severity (CGI-S) scale (Guy, “ECDEU Assessment Manual for Psychopharmacology-Revised (DHEW Publ No ADM 76-338)”, Rockville, Md.: U.S. Department of Health, Education, and Welfare, Public Health Service, Alcohol, Drug Abuse, and Mental Health Administration, NIMH Psychopharmacology Research Branch, Division of Extramural Research Programs; 1976, pp 218-222). Participants assessed their severity of anxiety on the Generalized Anxiety Disorder 7-item (GADS-7) Scale (See, Tables 157 and 158). See, Spitzer, “A brief measure for assessing generalized anxiety disorder—the GAD-7”, Arch. Intern. Med., 2006, 166(10):1092-1097."}, "[2]": {"test_system": "patients with treatment-resistant depression (TRD)", "experiment": "CADSS, phase 2 dose-response study in TRD", "format": "in vivo, human", "protocol": "Adverse events were monitored throughout the study. Other safety assessments (i.e., laboratory tests, vital signs, physical examination) were performed at pre-specified time points. Vital signs, the Clinician Administered Dissociative States Scale (CADSS; Bremner, “Measurement of dissociative states with the clinician-administered dissociative states scale (CADSS)”, J. Traumatic Stress, 1998, 11(1):125-136), and the 4-item positive symptom subscale from the Brief Psychiatric Rating Scale (BPRS; Overall, “The Brief Psychiatric Rating Scale. Psychological Reports”, 1962, 10:799-812) were assessed pre-dose, at 40 minutes, and 2 hours post-dose."}, "[3]": {"test_system": "patients with treatment-resistant depression (TRD)", "experiment": "CGI-S, phase 2 dose-response study in TRD", "format": "in vivo, human", "protocol": "as §1"}, "patients": {"test_system": "patients", "experiment": "Adverse reactions across clinical studies as described in product labeling", "format": "in vivo, human", "text": "In the product labeling, patients will be informed that dissociative/perceptual changes (including distortion of time and space and illusions), derealization and depersonalization are common psychological effects of esketamine. Patients will be further advised that • These adverse reactions were reported as transient and self-limited and occurred on the day of dosing. • Dissociation was reported as severe in intensity at the incidence of less than 4% across studies, • Dissociation symptoms typically resolved by 1.5 hours after dosing and the severity tended to reduce over time with repeated treatments. • Dissociative and perception disturbances may decrease after a few treatment sessions.\nThe product label will include a brief description of the adverse reactions of sedation and somnolence reported in clinical studies with esketamine: • Events of sedation and somnolence were primarily mild or moderate in severity, occurred on the day of dosing and resolved spontaneously the same day. • The sedative effects typically resolved by 1.5 hours after dosing. • Rates of somnolence were relatively stable over time during long-term treatment. • In the cases of sedation, no symptoms of respiratory distress were observed, and hemodynamic parameters (including vital signs and oxygen saturation) remained within normal ranges."}, "glutamate NMDA receptor": {"test_system": "glutamate NMDA receptor", "conditions": "cited from earlier work"}, "[4]": {"experiment": "Pharmacokinetics of intranasal esketamine 28, 56, 84 mg in healthy subjects (Example 9)", "conditions": "for AUC(0-inf) / AUC(0-t) / Cmax / half-life / Tmax: both, human, plasma; for Tmax: healthy subjects", "protocol": "This was an open-label, single-center study. The subjects were healthy Caucasian men and women, 20 to 55 years of age, inclusive. […] The solution consisted of:\nPharmacokinetic blood samples for measurement of esketamine and noresketamine concentrations in plasma were collected from predose until up to 24 hours after each intranasal esketamine regimen on Day 1 of each period.\nBlood samples (4 mL each) for determination of esketamine and noresketamine plasma concentrations were collected into the appropriate collection tube (e.g., Vacutainer®) at timepoints 0.00, 0.12, 0.20, 0.37, 0.53, 0.67, 0.83, 1.00, 1.25, 1.50, 2.00, 3.00, 4.00, 6.00, 9.00, 12.00, 18.00, and 24.00 h. The total amount of blood to be drawn for clinical laboratory tests and PK evaluations is approximately 327 mL.\nPlasma samples were analyzed for esketamine and noresketamine concentrations using the validated, specific and sensitive liquid chromatography coupled to tandem mass spectrometry (LC-MS/MS) achiral method of Example 8.\nSerial PK blood samples (4 mL each) were collected for a 24-hour period from each subject (Periods 1, 2, and 3).\nThe following key parameters of esketamine and noresketamine in plasma were calculated using noncompartmental methods and actual sampling times: Cmax, tmax, AUClast, AUC∞, t1/2,λ, and λz."}}, "data": [{"compound": "CN[C@]1(c2ccccc2Cl)CCCCC1=O", "note": "[esketamine, (S)-2-(2-chlorophenyl)-2-(methylamino)cyclohexanone]", "values": [{"measurement": "GAD-7 LS mean difference from placebo (SE)", "setting": "[1]; Period 1, 28 mg", "value": "−0.21 (1.461)"}, {"measurement": "GAD-7 change from baseline to end point, LS mean (SE)", "setting": "[1]; Period 1, 28 mg", "value": "−1.5 (1.34)"}, {"measurement": "GAD-7 LS mean difference from placebo (SE)", "setting": "[1]; Period 1, 56 mg", "value": "−1.40 (1.478)"}, {"measurement": "GAD-7 change from baseline to end point, LS mean (SE)", "setting": "[1]; Period 1, 56 mg", "value": "−3.1 (1.34)"}, {"measurement": "GAD-7 LS mean difference from placebo (SE)", "setting": "[1]; Period 1, 84 mg", "value": "−3.44 (1.414)"}, {"measurement": "GAD-7 change from baseline to end point, LS mean (SE)", "setting": "[1]; Period 1, 84 mg", "value": "−5.1 (1.30)"}, {"measurement": "GAD-7 LS mean difference from placebo (SE)", "setting": "[1]; Period 2, 28 mg", "value": "−2.02 (1.089)"}, {"measurement": "GAD-7 change from baseline to end point, LS mean (SE)", "setting": "[1]; Period 2, 28 mg", "value": "−1.6 (0.87)"}, {"measurement": "GAD-7 LS mean difference from placebo (SE)", "setting": "[1]; Period 2, 56 mg", "value": "0.60 (1.033)"}, {"measurement": "GAD-7 change from baseline to end point, LS mean (SE)", "setting": "[1]; Period 2, 56 mg", "value": "1.0 (0.98)"}, {"measurement": "GAD-7 LS mean difference from placebo (SE)", "setting": "[1]; Period 2, 84 mg", "value": "−1.25 (1.205)"}, {"measurement": "GAD-7 change from baseline to end point, LS mean (SE)", "setting": "[1]; Period 2, 84 mg", "value": "−0.9 (1.02)"}, {"measurement": "CADSS perceptual changes/dissociative symptoms resolved by", "setting": "[2]", "value": "≤ 2", "unit": "h"}, {"measurement": "CADSS perceptual changes/dissociative symptoms: time of peak", "setting": "[2]", "value": "30 to 40", "unit": "min"}, {"measurement": "CGI-S Median (Range)", "setting": "[3]; Period 1, 28 mg", "value": "4.0 (3, 5)"}, {"measurement": "CGI-S Median Change (Range) from baseline to end point", "setting": "[3]; Period 1, 28 mg", "value": "−1.0 (−2, 1)"}, {"measurement": "CGI-S Median (Range)", "setting": "[3]; Period 1, 56 mg", "value": "4.0 (1, 5)"}, {"measurement": "CGI-S Median Change (Range) from baseline to end point", "setting": "[3]; Period 1, 56 mg", "value": "−1.0 (−3, 0)"}, {"measurement": "CGI-S Median (Range)", "setting": "[3]; Period 1, 84 mg", "value": "4.0 (1, 6)"}, {"measurement": "CGI-S Median Change (Range) from baseline to end point", "setting": "[3]; Period 1, 84 mg", "value": "−0.5 (−4, 0)"}, {"measurement": "CGI-S Median (Range)", "setting": "[3]; Period 2, 28 mg", "value": "4.0 (3, 5)"}, {"measurement": "CGI-S Median Change (Range) from baseline to end point", "setting": "[3]; Period 2, 28 mg", "value": "−1.0 (−1, 0)"}, {"measurement": "CGI-S Median (Range)", "setting": "[3]; Period 2, 56 mg", "value": "5.0 (4, 6)"}, {"measurement": "CGI-S Median Change (Range) from baseline to end point", "setting": "[3]; Period 2, 56 mg", "value": "−1.0 (−2, 0)"}, {"measurement": "CGI-S Median (Range)", "setting": "[3]; Period 2, 84 mg", "value": "4.0 (3, 5)"}, {"measurement": "CGI-S Median Change (Range) from baseline to end point", "setting": "[3]; Period 2, 84 mg", "value": "−1.0 (−2, 0)"}, {"measurement": "Dissociation symptoms typically resolved by (after dosing)", "setting": "patients; across studies", "value": "≤ 1.5", "unit": "h"}, {"measurement": "Incidence of dissociation reported as severe in intensity", "setting": "patients; across studies", "value": "less than 4%"}, {"measurement": "Sedative effects typically resolved by (after dosing)", "setting": "patients; clinical studies", "value": "≤ 1.5", "unit": "h"}, {"measurement": "Affinity for the glutamate NMDA receptor in vitro relative to R-ketamine", "setting": "glutamate NMDA receptor", "value": "3 to 4", "unit": "fold"}, {"measurement": "AUC(0-inf)", "setting": "[4]; inhaled or intranasal, 28 mg", "value": 136, "unit": "ng·h/mL"}, {"measurement": "AUC(0-t)", "setting": "[4]; inhaled or intranasal, 28 mg", "value": 128, "unit": "ng·h/mL"}, {"measurement": "Cmax", "setting": "[4]; inhaled or intranasal, 28 mg", "value": 49.7, "unit": "ng/mL"}, {"measurement": "half-life", "setting": "[4]; inhaled or intranasal, 28 mg", "value": 7.25, "unit": "h"}, {"measurement": "Tmax", "setting": "[4]; inhaled or intranasal, 28 mg, tmax, esketamine in plasma, single intranasal 28 mg (Treatment A), median", "value": 0.67, "unit": "h"}, {"measurement": "AUC(0-inf)", "setting": "[4]; inhaled or intranasal, 56 mg", "value": 222, "unit": "ng·h/mL"}, {"measurement": "AUC(0-t)", "setting": "[4]; inhaled or intranasal, 56 mg", "value": 216, "unit": "ng·h/mL"}, {"measurement": "Cmax", "setting": "[4]; inhaled or intranasal, 56 mg", "value": 74.1, "unit": "ng/mL"}, {"measurement": "half-life", "setting": "[4]; inhaled or intranasal, 56 mg", "value": 7.25, "unit": "h"}, {"measurement": "Tmax", "setting": "[4]; inhaled or intranasal, 56 mg, tmax, esketamine in plasma, single intranasal 56 mg (Treatment B), median", "value": 0.67, "unit": "h"}, {"measurement": "AUC(0-inf)", "setting": "[4]; inhaled or intranasal, 84 mg", "value": 329, "unit": "ng·h/mL"}, {"measurement": "AUC(0-t)", "setting": "[4]; inhaled or intranasal, 84 mg", "value": 310, "unit": "ng·h/mL"}, {"measurement": "Cmax", "setting": "[4]; inhaled or intranasal, 84 mg", "value": 103, "unit": "ng/mL"}, {"measurement": "half-life", "setting": "[4]; inhaled or intranasal, 84 mg", "value": 7.11, "unit": "h"}, {"measurement": "Tmax", "setting": "[4]; inhaled or intranasal, 84 mg, Median tmax of esketamine, range across regimens, intranasal 28, 56, 84 mg", "value": "0.67 to 0.83", "unit": "h"}, {"measurement": "Tmax", "setting": "[4]; inhaled or intranasal, 84 mg, tmax, esketamine in plasma, single intranasal 84 mg (Treatment C), median", "value": 0.83, "unit": "h"}, {"measurement": "half-life", "setting": "[4]; other: intranasal, 84 mg", "value": "7.11 to 7.25", "unit": "h"}, {"measurement": "AUC (AUClast and AUC∞) variability", "setting": "[4]; esketamine in plasma", "value": "25.0% to 30.4"}, {"measurement": "Cmax variability (percent coefficient of variation) across the 3 treatment groups", "setting": "[4]; esketamine in plasma", "value": "35.7% to 36.7"}]}]}
